Converted amounts (≈) assume the structure as drawn.
How the values were obtained:
Assay type in all cases: functional
[1] = system: Staphylococcus aureus; assay: Antibacterial activity against Staphylococcus aureus ATCC 29213 incubated for 18 hrs by serial two-fold dilution method
[2] = system: Staphylococcus epidermidis; assay: Antibacterial activity against Staphylococcus epidermidis ATCC 12228 incubated for 18 hrs by serial two-fold dilution method
[3] = system: Staphylococcus aureus; assay: Antibacterial activity against methicillin resistant Staphylococcus aureus ATCC 33592 incubated for 18 hrs by serial two-fold dilution method
[4] = system: Staphylococcus aureus; assay: Antibacterial activity against methicillin resistant Staphylococcus aureus ATCC 43300 incubated for 18 hrs by serial two-fold dilution method

Row | SMILES | MIC [1] [µg/mL] | MIC [2] [µg/mL] | MIC [3] [µg/mL] | MIC [4] [µg/mL]
1 | C/C(O)=C1\C(=O)[C@@H]2Cc3c(n(S(=O)(=O)c4ccc(C)cc4)c4ccccc34)[C@@H](c3ccc(-c4ccc(C)cc4)cc3)N2C1=O | 8 (≈ 13.3 µM) | 2 (≈ 3.32 µM) | 8 (≈ 13.3 µM) | –
2 | CC[C@@H]1c2[nH]c3ccccc3c2C[C@H]2C(=O)/C(=C(\C)O)C(=O)N12 | > 128 | – | – | –
3 | C/C(O)=C1\C(=O)[C@@H]2Cc3c(n(S(=O)(=O)c4ccc(C)cc4)c4ccccc34)[C@@H](c3ccc(-c4ccc(F)cc4)cc3)N2C1=O | 2 (≈ 3.3 µM) | 0.25 (≈ 0.412 µM) | 2 (≈ 3.3 µM) | –
4 | C/C(O)=C1\C(=O)[C@@H]2Cc3c([nH]c4ccccc34)[C@@H](c3ccc(-c4ccc(C)cc4)cc3)N2C1=O | 0.125 (≈ 0.279 µM) | 0.25 (≈ 0.557 µM) | 0.25 (≈ 0.557 µM) | 0.125 (≈ 0.279 µM)
5 | C/C(O)=C1\C(=O)[C@@H]2Cc3c([nH]c4ccccc34)[C@@H](c3ccc(-c4ccccc4C)cc3)N2C1=O | 0.125 (≈ 0.279 µM) | 0.5 (≈ 1.11 µM) | 0.25 (≈ 0.557 µM) | –
6 | C/C(O)=C1\C(=O)[C@@H]2Cc3c([nH]c4ccccc34)[C@@H](c3ccc(-c4cccc(C(F)(F)F)c4)cc3)N2C1=O | 0.5 (≈ 0.995 µM) | 0.063 (≈ 0.125 µM) | 0.5 (≈ 0.995 µM) | –
7 | C/C(O)=C1\C(=O)[C@@H]2Cc3c([nH]c4ccccc34)[C@@H](Cc3ccccc3)N2C1=O | 32 (≈ 85.9 µM) | – | – | –
8 | O=C(OC1=CC(=O)N2[C@H](c3ccc(-c4cc(F)cc(F)c4)cc3)c3[nH]c4ccccc4c3C[C@@H]12)c1ccccc1 | > 4 | > 4 | > 4 | –
9 | C/C(N)=C1\C(=O)[C@@H]2Cc3c([nH]c4ccccc34)[C@@H](c3ccc(-c4ccc(OC(F)(F)F)cc4)cc3)N2C1=O | 4 (≈ 7.73 µM) | 4 (≈ 7.73 µM) | 4 (≈ 7.73 µM) | –
10 | C/C(O)=C1\C(=O)[C@@H]2Cc3c([nH]c4ccccc34)[C@H](c3ccc(C(F)(F)F)cc3)N2C1=O | 16 (≈ 37.5 µM) | – | – | –
11 | C/C(O)=C1\C(=O)[C@@H]2Cc3c([nH]c4ccccc34)[C@@H](c3ccc(-c4ccc(C(F)(F)F)cc4)o3)N2C1=O | 0.25 (≈ 0.508 µM) | 0.25 (≈ 0.508 µM) | 0.25 (≈ 0.508 µM) | 0.25 (≈ 0.508 µM)
12 | C/C(O)=C1\C(=O)[C@@H]2Cc3c([nH]c4ccccc34)[C@@H](c3ccc(-c4ccc(F)cc4)o3)N2C1=O | 0.5 (≈ 1.13 µM) | 0.5 (≈ 1.13 µM) | 0.5 (≈ 1.13 µM) | 0.5 (≈ 1.13 µM)
13 | COC(=O)[C@@H]1Cc2c([nH]c3ccccc23)[C@@H](C)N1 | > 128 | – | – | –
14 | C/C(O)=C1\C(=O)[C@@H]2Cc3c([nH]c4ccccc34)[C@@H](c3ccc(C(F)(F)F)cc3)N2C1=O | 2 (≈ 4.69 µM) | – | – | –
15 | C/C(O)=C1\C(=O)[C@@H]2Cc3c(n(C)c4ccccc34)[C@@H](c3ccc(-c4ccc(F)cc4)cc3)N2C1=O | 0.25 (≈ 0.536 µM) | 0.063 (≈ 0.135 µM) | 0.5 (≈ 1.07 µM) | –
16 | C/C(O)=C1\C(=O)[C@@H]2Cc3c([nH]c4ccccc34)[C@@H](c3ccccc3)N2C1=O | 8 (≈ 22.3 µM) | – | – | –
17 | C/C(O)=C1\C(=O)[C@@H]2Cc3c(n(CC4CC4)c4ccccc34)[C@@H](c3ccc(-c4ccc(F)cc4)cc3)N2C1=O | 0.125 (≈ 0.247 µM) | 0.25 (≈ 0.494 µM) | 0.125 (≈ 0.247 µM) | 0.125 (≈ 0.247 µM)
18 | C/C(O)=C1\C(=O)[C@@H]2Cc3c([nH]c4ccccc34)[C@@H](c3ccc(F)cc3F)N2C1=O | 8 (≈ 20.3 µM) | – | – | –
19 | C/C(O)=C1\C(=O)[C@@H]2Cc3c([nH]c4ccccc34)[C@@H](c3ccc(C(C)(C)C)cc3)N2C1=O | 4 (≈ 9.65 µM) | – | – | –

Row | SMILES | MIC [1] [µg/mL] | MIC [2] [µg/mL] | MIC [3] [µg/mL] | MIC [4] [µg/mL]
20 | CCC(=O)OC1=CC(=O)N2[C@H](c3ccc(-c4cc(F)cc(F)c4)cc3)c3[nH]c4ccccc4c3C[C@@H]12 | > 4 | > 4 | > 4 | –
21 | C/C(O)=C1\C(=O)[C@@H]2Cc3c([nH]c4ccccc34)[C@@H](c3ccc(-c4ccccc4F)cc3)N2C1=O | 0.125 (≈ 0.276 µM) | 0.25 (≈ 0.553 µM) | 0.25 (≈ 0.553 µM) | 0.25 (≈ 0.553 µM)
22 | C/C(O)=C1\C(=O)[C@@H]2Cc3c([nH]c4ccccc34)[C@@H](c3ccc4ccccc4c3)N2C1=O | 8 (≈ 19.6 µM) | – | – | –
23 | O=C(OC1=CC(=O)N2[C@H](c3ccc(-c4cc(F)cc(F)c4)cc3)c3[nH]c4ccccc4c3C[C@@H]12)c1ccc2ccccc2c1 | 4 (≈ 6.87 µM) | > 4 | 2 (≈ 3.43 µM) | –
24 | C/C(O)=C1\C(=O)[C@@H]2Cc3c([nH]c4ccccc34)[C@@H](c3ccc(-c4ccc(C(F)(F)F)cc4)cc3)N2C1=O | 0.063 (≈ 0.125 µM) | 0.063 (≈ 0.125 µM) | 0.25 (≈ 0.498 µM) | –
25 | CCn1c2c(c3ccccc31)C[C@H]1C(=O)/C(=C(\C)O)C(=O)N1[C@@H]2c1ccc(-c2ccc(F)cc2)cc1 | 0.25 (≈ 0.52 µM) | 0.25 (≈ 0.52 µM) | 0.25 (≈ 0.52 µM) | 0.125 (≈ 0.26 µM)
26 | C/C(O)=C1\C(=O)[C@@H]2Cc3c([nH]c4ccccc34)[C@@H](c3ccc(-c4cc(F)c(F)c(F)c4)cc3)N2C1=O | 0.5 (≈ 1.02 µM) | 1 (≈ 2.05 µM) | 1 (≈ 2.05 µM) | –
27 | O=C1/C(=C(/O)c2ccc(F)cc2)C(=O)N2[C@H](c3ccc(-c4cc(F)cc(F)c4)cc3)c3[nH]c4ccccc4c3C[C@@H]12 | 0.5 (≈ 0.908 µM) | 0.5 (≈ 0.908 µM) | 0.5 (≈ 0.908 µM) | –
28 | O=C1/C(=C(/O)c2ccc3ccccc3c2)C(=O)N2[C@H](c3ccc(-c4cc(F)cc(F)c4)cc3)c3[nH]c4ccccc4c3C[C@@H]12 | 4 (≈ 6.87 µM) | 2 (≈ 3.43 µM) | 2 (≈ 3.43 µM) | –
29 | CCc1ccc(-c2ccc([C@@H]3c4[nH]c5ccccc5c4C[C@H]4C(=O)/C(=C(\C)O)C(=O)N34)cc2)cc1 | 0.5 (≈ 1.08 µM) | 0.25 (≈ 0.54 µM) | 0.25 (≈ 0.54 µM) | 0.25 (≈ 0.54 µM)
30 | COc1ccc([C@H]2c3[nH]c4ccccc4c3C[C@H]3C(=O)/C(=C(\C)O)C(=O)N23)cc1 | 8 (≈ 20.6 µM) | – | – | –
31 | O=C1CC(=O)N2[C@H](c3ccc(-c4ccc(C(F)(F)F)cc4)cc3)c3[nH]c4ccccc4c3C[C@@H]12 | > 4 | 4 (≈ 8.69 µM) | > 4 | –
32 | O=C1/C(=C(/O)c2cccs2)C(=O)N2[C@H](c3ccc(-c4cc(F)cc(F)c4)cc3)c3[nH]c4ccccc4c3C[C@@H]12 | 0.25 (≈ 0.464 µM) | 0.25 (≈ 0.464 µM) | 0.25 (≈ 0.464 µM) | 0.125 (≈ 0.232 µM)
33 | C/C(O)=C1\C(=O)[C@@H]2Cc3c([nH]c4ccccc34)[C@H](c3ccccc3)N2C1=O | 16 (≈ 44.6 µM) | – | – | –
34 | C/C(O)=C1\C(=O)[C@@H]2Cc3c([nH]c4ccccc34)CN2C1=O | 128 (≈ 453 µM) | – | – | –
35 | C/C(O)=C1\C(=O)[C@@H]2Cc3c([nH]c4ccccc34)[C@H](c3cccc(F)c3)N2C1=O | 32 (≈ 85 µM) | – | – | –
36 | Cc1ccc(/C(O)=C2\C(=O)[C@@H]3Cc4c([nH]c5ccccc45)[C@@H](c4ccc(-c5cc(F)cc(F)c5)cc4)N3C2=O)cc1 | 0.5 (≈ 0.915 µM) | 0.25 (≈ 0.457 µM) | 0.5 (≈ 0.915 µM) | –
37 | Cc1ccc(C(=O)OC2=CC(=O)N3[C@H](c4ccc(-c5cc(F)cc(F)c5)cc4)c4[nH]c5ccccc5c4C[C@@H]23)cc1 | > 4 | > 4 | > 4 | –
38 | C/C(O)=C1\C(=O)[C@@H]2Cc3c([nH]c4ccccc34)[C@@H](c3ccc(-c4ccc(F)cc4)cc3)N2C1=O | 0.063 (≈ 0.139 µM) | 0.125 (≈ 0.276 µM) | 0.125 (≈ 0.276 µM) | –

Row | SMILES | MIC [1] [µg/mL] | MIC [2] [µg/mL] | MIC [3] [µg/mL] | MIC [4] [µg/mL]
39 | CC/C(O)=C1\C(=O)[C@@H]2Cc3c([nH]c4ccccc34)[C@@H](c3ccc(-c4cc(F)cc(F)c4)cc3)N2C1=O | 0.063 (≈ 0.13 µM) | 0.125 (≈ 0.258 µM) | 0.063 (≈ 0.13 µM) | 0.063 (≈ 0.13 µM)
40 | C/C(O)=C1\C(=O)[C@@H]2Cc3c([nH]c4ccccc34)[C@@H](c3ccc(-c4cccc(F)c4)cc3)N2C1=O | 0.125 (≈ 0.276 µM) | 0.25 (≈ 0.553 µM) | 0.25 (≈ 0.553 µM) | –
41 | O=C1CC(=O)N2[C@H](c3ccc(-c4ccc(OC(F)(F)F)cc4)cc3)c3[nH]c4ccccc4c3C[C@@H]12 | > 4 | > 4 | > 4 | –
42 | C/C(O)=C1\C(=O)[C@@H]2Cc3c([nH]c4ccccc34)[C@@H](c3ccc(-c4cc(C(F)(F)F)cc(C(F)(F)F)c4)cc3)N2C1=O | 1 (≈ 1.75 µM) | 1 (≈ 1.75 µM) | 1 (≈ 1.75 µM) | –
43 | C/C(O)=C1\C(=O)[C@@H]2Cc3c([nH]c4ccccc34)[C@@H](c3cccc(F)c3)N2C1=O | 8 (≈ 21.3 µM) | – | – | –
44 | C/C(O)=C1\C(=O)[C@@H]2Cc3c([nH]c4ccccc34)[C@@H](C)N2C1=O | > 128 | – | – | –
45 | CC(C)=CCc1cccc2[nH]c3c(c12)C[C@H]1C(=O)/C(=C(\C)O)C(=O)N1[C@@H]3C | 8 (≈ 22 µM) | 8 (≈ 22 µM) | 8 (≈ 22 µM) | 8 (≈ 22 µM)
46 | C/C(N)=C1\C(=O)[C@@H]2Cc3c([nH]c4ccccc34)[C@@H](c3ccc(-c4ccccc4)cc3)N2C1=O | > 4 | > 4 | > 4 | –
47 | C/C(O)=C1\C(=O)[C@@H]2Cc3c([nH]c4ccccc34)[C@@H](c3ccc(F)cc3)N2C1=O | 4 (≈ 10.6 µM) | – | – | –
48 | CC(=O)OC1=CC(=O)N2[C@H](c3ccc(-c4cc(F)cc(F)c4)cc3)c3[nH]c4ccccc4c3C[C@@H]12 | > 4 | > 4 | > 4 | –
49 | C/C(O)=C1\C(=O)[C@@H]2Cc3c([nH]c4ccccc34)[C@@H](c3ccccn3)N2C1=O | 64 (≈ 178 µM) | – | – | –
50 | O=C(OC1=CC(=O)N2[C@H](c3ccc(-c4cc(F)cc(F)c4)cc3)c3[nH]c4ccccc4c3C[C@@H]12)c1cccs1 | > 4 | > 4 | > 4 | –
51 | COc1ccc([C@@H]2c3[nH]c4ccccc4c3C[C@H]3C(=O)/C(=C(\C)O)C(=O)N23)cc1 | 4 (≈ 10.3 µM) | – | – | –
52 | C/C(O)=C1\C(=O)[C@@H]2Cc3c([nH]c4ccccc34)[C@@H](c3ccc(C)cc3)N2C1=O | 4 (≈ 10.7 µM) | – | – | –
53 | C/C(O)=C1\C(=O)[C@@H]2Cc3c([nH]c4ccccc34)[C@@H](c3ccc(-c4ccc(F)cc4F)cc3)N2C1=O | 0.125 (≈ 0.266 µM) | 0.25 (≈ 0.531 µM) | 0.25 (≈ 0.531 µM) | 0.125 (≈ 0.266 µM)
54 | O=C(OC1=CC(=O)N2[C@H](c3ccc(-c4cc(F)cc(F)c4)cc3)c3[nH]c4ccccc4c3C[C@@H]12)c1ccc(F)cc1 | > 4 | > 4 | > 4 | –
55 | O=C1CC(=O)N2[C@H](c3ccc(-c4cc(F)cc(F)c4)cc3)c3[nH]c4ccccc4c3C[C@@H]12 | > 4 | > 4 | 4 (≈ 9.34 µM) | –
56 | O=C1CC(=O)N2[C@H](c3ccc(-c4ccc(F)cc4)cc3)c3[nH]c4ccccc4c3C[C@@H]12 | > 4 | > 4 | > 4 | –
